Assay results published in patent US11655239B2 (SHANGHAI INSTITUTE OF MATERIAL MEDICA, CHINESE ACADEMY OF …, priority 2019, dated 2023).
Where two headings read alike, the source gives them in different places.

Legend:
DDR2 = DDR2 (Homo sapiens (Human), UniProt Q16832); test: DDR2 enzyme activity test (ELISA); type: biochemical; settings: for inhibition at 0.1 µM: read-out: DDR2 Inhibition rate at 0.1 μM
Description: The optical rotation and the inhibitory activity against DDR2 enzyme of the compounds S11-A and S11-B obtained by the resolution in Example 12, and the chirally synthesized compounds S11-A′ and S11-B′ in Example 13 were tested (referred to the operation in Effect example 1), and the results are shown in Table 3 below:
Detection method: Enzyme-linked immunosorbent assay (ELISA)
Test receptor tyrosine kinase: DDR2
The kinase used in the experiment was obtained by our laboratory using the insect baculovirus expression system to express and purify the recombinant protein containing the protein kinase region; polyglutamic acid-tyrosine peptide segment [Poly(Glu, Tyr) 4:1] and sodium vanadate were purchased from Sigma; the anti-phosphorylated monoclonal antibody PY99 was purchased from Santa Cruz; horseradish peroxidase labeled goat anti-murine secondary antibody was purchased from Calbiochem; ATP and OPD were purchased from Sangon Biotech (Shanghai) Co., Ltd.; the remaining reagents were purchased from Sinopharm Chemical Reagent Co., Ltd. The reaction ELISA plate (#2592) was purchased from Corning. The full-wavelength microplate reader for experiment reading was a product of Molecular Device, model: SpectraMax 190; the experimental water was distilled water produced by Sinopharm Group.
The compound was centrifuged at 12,000 g for 5 min, and DMSO was added to prepare a 10^-2M stock solution, which was vortexed evenly, then sonicated for 10 min and stored at −40° C. for later use. During the test, the compound was diluted with DMSO from the stock solution to 100 times the test concentration (the DMSO concentration in the system was 1%).
1) Enzyme reaction substrate Poly(Glu, Tyr) 4:1 was diluted to 20 μg/mL with potassium-free PBS (10 mM sodium phosphate buffer, 150 mM NaCl, pH 7.2-7.4), and the microtiter plate was coated with 125 μL/well and placed at 37° C. for 12-16 hours of reaction. The liquid in the well was discard. The plate was washed three times with T-PBS (potassium-free PBS containing 0.1% Tween-20, 200 μL/well), 5 minutes each time. The ELISA plate was dried in an oven at 37° C. for 1 to 2 hours.
2) Reaction buffer (50 mM HEPES pH 7.4, 50 mM MgCl2, 0.5 mM MnCl2, 0.2 mM Na3VO4, 1 mM DTT) diluted ATP solution (49 μL) was added to each well, 1 μL of the compound to be tested was added to each well, and then 50 μL of DDR2 kinase domain recombinant protein diluted in the reaction buffer was added to start the reaction. Two control wells without ATP were set in each experiment. The plate placed on a shaker (100 rpm) at 37° C. for 1 hour of reaction. The liquid in the well was discarded and the plate was washed three times with T-PBS.
3) Antibody PY99 dilution solution (the antibody was diluted 1:500 with T-PBS containing BSA 5 mg/mL) was added at 100 μL/well, and shaken on a shaker at 37° C. for 0.5 hour of reaction. The liquid in the well was discarded and the plate was washed three times with T-PBS.
4) Horseradish peroxidase labeled goat anti-murine secondary antibody dilution solution (the antibody is diluted 1:2000 with T-PBS containing BSA 5 mg/ml) was added at 100 μL/well, and shaken on a shaker at 37° C. for 0.5 hour of reaction. The liquid in the well was discarded and the plate was washed three times with T-PBS.
5) 2 mg/ml of OPD color developing solution [diluted with 0.1 M citric acid-sodium citrate buffer (pH=5.4) containing 0.03% H2O2] was added at 100 μL/well and reacted for 1 to 10 minutes at 25° C. in the dark.
6) 2M H2SO4 was added at 50 μL/well to stop the reaction, and a tunable wavelength microplate reader VERSAmax was used for reading at a wavelength of 490 nm.
The IC50 value was obtained by four-parameter regression using the software that came with the microplate reader.

[1] = test system: pulmonary fibrosis induced by bleomycin in mice; test: mRNA levels of fibrosis-related markers in lung tissue (qRT-PCR); type: in vivo, mouse; settings: 30 mg/kg
Description: About 30 mg of cryopreserved lung tissue was weighed and homogenized and lysed by adding 200 μL of Trizol (Takara, 9109 #). The fluid after the lysis in the well was collected by the RNA sterilization-grade pipette tip and transferred to the corresponding sterile EP tube. […] of chloroform was added, shaken vigorously for 30 sec, and centrifuged for 15 minutes in a centrifuge at 4° C. at 12000 rpm. The upper aqueous layer was transferred to a new EP tube, an equal volume of isopropanol was used to precipitate the RNA in the aqueous phase, and the tube was allowed to stand at −20° C. for more than 1 hr. And then the tube was centrifuged for 15 min at 4° C. at 12000 rpm, and the supernatant was discarded. 75% ethanol was added to wash the RNA pellet, and then the tube was centrifuged for 15 min at 4° C. at 12000 rpm, and the supernatant was discarded. The tube was placed at room temperature for 10-20 min to dry the RNA pellet. 25-200 μL of RNase-free water was added for dissolution and stored at −80° C.
PrimeScript™ RT Master Mix (Takara, RR036A) was selected for mRNA reverse transcription. Please refer to the instructions for the system. In short, 1 μg of mRNA was added to a 20 μL system, mixed and then kept at a constant temperature in a 37° C. water bath for 15 minutes, and then the enzyme was inactivated at 85° C. for 5 seconds. After centrifugation, double distilled water was used to dilute 10 times.
Q-PCR technology used 2×SYBR Green qPCR Master Mix (B21202, Biomake), and the reaction system could be prepared according to the instruction (10 μL of 2×SYBGreen, 8.8 μL of cDNA template, 1.2 μL of 5 μM primer Mix). The reaction conditions are: pre-denaturation at 95° C. for 5 min, denaturation at 95° C. for 30 sec, annealing at 60° C. for 30 sec, and extension at 72° C. for 30 sec, the number of reaction cycles is 40 cycles.
The experiment used qRT-PCR technology to determine the mRNA levels of fibrosis-related markers in lung tissue.
The experimental method was the same as that for the evaluation of the mRNA levels of inflammatory cytokines.

Sequence of DDR2 (Q16832 563-849): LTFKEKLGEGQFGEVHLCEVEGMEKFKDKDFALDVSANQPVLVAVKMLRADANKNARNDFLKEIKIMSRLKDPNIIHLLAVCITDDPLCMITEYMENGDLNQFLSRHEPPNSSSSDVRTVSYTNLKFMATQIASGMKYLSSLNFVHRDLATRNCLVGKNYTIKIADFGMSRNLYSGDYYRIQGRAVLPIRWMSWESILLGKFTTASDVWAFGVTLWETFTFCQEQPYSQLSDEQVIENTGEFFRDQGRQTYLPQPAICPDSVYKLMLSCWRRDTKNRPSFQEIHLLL

SMILES	IC50 (DDR2; read-out: DDR2 IC50) [nM]	inhibition at 0.1 µM (DDR2) [%]	also measured
Cc1ccc([C@H](C)NC(=O)c2cccc(C(F)(F)F)c2)cc1-c1ccc2nc(Nc3cnn(C4CC4)c3)ncc2c1 [Compound S11-A]			IC50 (DDR2; Table 3, chiral synthesis vs resolution, read-out: Molecular activity comparison (inhibitory activity against DDR2 enzyme)): 5 ± 0.1 nM; reduction of expression (mRNA) of Collagen1-α1 [1]: about 50%; reduction of expression (mRNA) of TGF-β1 [1]: about 50%; reduction of expression (mRNA) of α-SMA [1]: about 50%
CC(C)c1ccc(C(=O)Nc2cccc(C(F)(F)F)c2)cc1-c1ccc2nc(Nc3cnn(C)c3)ncc2c1 [Compound S13, 4-isopropyl-3-(2-((1-methyl-1H-pyrazol-4-yl)amino)quinazolin-6-yl)-N-(3-(trifluoromethyl)phenyl)benzamide]	5.4 ± 0.4		
C[C@@H](NC(=O)c1ccc(C2CC2)c(-c2ccc3cnc(Nc4cnn(C5CC5)c4)nc3c2)c1)c1cccc(C(F)(F)F)c1 [Compound S37]	13.5 ± 7.2		
Cc1nc(C(C)NC(=O)c2ccc(C3CC3)c(-c3ccc4nc(Nc5cnn(C6CC6)c5)ncc4c3)c2)cs1 (stereo not shown) [Compound S44]		72.9	
Cc1ccc(C(=O)NCc2cccc(C(F)(F)F)c2)cc1-c1ccc2nc(Nc3cnn(C)c3)ncc2c1 [Compound S7, 4-methyl-3-(2-((1-methyl-1H-pyrazol-4-yl)amino)quinazolin-6-yl)-N-(3-(trifluoromethyl)benzyl)benzamide]	1.3 ± 0.2		
CC(NC(=O)c1ccc(C2CC2)c(-c2ccc3nc(Nc4cnn(C5CC5)c4)ncc3c2)c1)c1cc(C(F)(F)F)ccn1 (stereo not shown) [Compound S45]		68.4	
CCN1CCN(Cc2cc(C(C)NC(=O)c3ccc(C4CC4)c(-c4ccc5nc(Nc6cnn(C7CC7)c6)ncc5c4)c3)cc(C(F)(F)F)c2)CC1 (stereo not shown) [Compound S43]		57.6	
